Measurements from US20240226130A1, “4'-THIONUCLEOSIDE ANALOGUES AND THEIR PHARMACEUTICAL USE” (Gilead Sciences, Inc., priority 2022, published 2024).
Read-outs that look alike come from different tables or passages of the source.

How the values were obtained:
[1] = Cytotoxicity assay in MT-4 cells; assay type: cell-based; settings: human, uninfected MT-4 cells, read-out: MT4 CC50
Method: Example 10: Cytotoxicity Assay in MT-4 Cells
Assays were performed as described in Example 9 except uninfected MT-4 cells were added to each well containing test compound. In addition, 10 μM puromycin was added to the last column of each assay plate to assess a base level of cytotoxicity.

[2] = tested on: HIV-1 (IIIB); experiment: Antiviral (HIV) assay in MT-4 cells; assay type: cell-based; settings: read-out: MT4 HIV EC50
Method: Example 9: Antiviral (HIV) Assay in MT-4 Cells
Compounds were tested in a high-throughput 384-well assay format for their ability to inhibit the replication of HIV-1 (IIIB) in MT-4 cells. Compounds were serially diluted (1:3) in DMSO on 384-well polypropylene plates and further diluted 200-fold into complete RPMI media (10% FBS, 1% P/S) using the Biotek Micro Flow and Labcyte ECHO acoustic dispenser. Each plate contained up to 8 test compounds, with negative (no drug) and positive (5 μM AZT) controls. MT-4 cells were pre-treated with 10 μL of either RPMI (mock-infected) or a fresh 1:250 dilution of HIV-1 IIIB concentrated virus stock. Infected and uninfected MT-4 cells were further diluted in complete RPMI media and added to each plate using a Micro Flow dispenser. After 5 days incubation in a humidified and temperature-controlled incubator (37° C.), Cell Titer Glo (Promega) was added to the assay plates and chemiluminescence read using an Envision plate-reader. EC50 values were defined as the compound concentration that causes a 50% decrease in luminescence signal and were calculated using a sigmoidal dose-response model to generate curve fits and are shown in Table 1.

[3] = Rhesus pharmacokinetic study, intravenous compound 7 (plasma and PBMC); settings: for Intracellular concentration in PBMC: LOQ 2.5 μM compound 7, 0.63 μM triphosphate
Method: Male Indian Origin Rhesus Monkeys were used for the pharmacokinetic studies. Studies were conducted under a protocol approved by IACUC. […] The intravenous dose was administered as an approximately 30-minute infusion, and after dose administration the dose apparatus was flushed with approximately 1 mL saline before removal from the animal. Food was returned 4 hours after dosing. […] The K2EDTA tubes were kept chilled at approximately 5° C. until centrifugation (4° C., 5 minutes, 2000×g) to collect plasma. Centrifugation began within 1 hour of collection. Plasma samples were harvested, placed in micronic tubes, and maintained on dry ice prior to storage at −70° C. until analysis by LC-MS/MS. […] The sodium citrate tubes were then gently inverted 3-4 times and stored upright at ambient temperature until centrifugation to collect PBMCs. Centrifugation began as soon as possible following collection, within 6 hours after collection. The PBMCs were separated by centrifugation (30 minutes at 1500×g-1800×g, 18-20° C.), washed once with ice cold 0.9% NaCl and treated with red blood cell lysis buffer (3.5 g ammonium chloride and 0.036 g ammonium carbonate in 500 mL ultrapure water, prepared before first blood collection) for 10 minutes at ambient temperature. Subsequently the cells were washed twice with ice cold 0.9% NaCl, the cell pellet resuspended in ice cold RIPA buffer (fortified with Pierce protease ad phosphatase inhibitor tablet), snap frozen in liquid nitrogen, and maintained at −70° C. until analysis by LC-MS/MS.

[4] = Rhesus pharmacokinetic study, oral compound 7 (plasma and PBMC); settings: for Intracellular concentration in PBMC: LOQ 0.16 μM compound 7, 0.04 μM triphosphate
Method: The oral dose was administered via oral gavage, and after dose administration the dose apparatus was flushed with approximately 10 mL water before removal from the animal. Food was returned 4 hours after dosing. […] The K2EDTA tubes were kept chilled at approximately 5° C. until centrifugation (4° C., 5 minutes, 2000×g) to collect plasma. Centrifugation began within 1 hour of collection. Plasma samples were harvested, placed in micronic tubes, and maintained on dry ice prior to storage at −70° C. until analysis by LC-MS/MS. […] The sodium citrate tubes were then gently inverted 3-4 times and stored upright at ambient temperature until centrifugation to collect PBMCs. Centrifugation began as soon as possible following collection, within 6 hours after collection. The PBMCs were separated by centrifugation (30 minutes at 1500×g-1800×g, 18-20° C.), washed once with ice cold 0.9% NaCl and treated with red blood cell lysis buffer (3.5 g ammonium chloride and 0.036 g ammonium carbonate in 500 mL ultrapure water, prepared before first blood collection) for 10 minutes at ambient temperature. Subsequently, the cells were washed twice with ice cold 0.9% NaCl and the cell pellet maintained at −70° C. until analysis by LC-MS/MS.

[5] = Human immunodeficiency virus 1, MT4, 120 h, HIV-1 IIIB in MT-4 cells, 5 days, Cell Titer Glo
[6] = Human immunodeficiency virus 1, IIIB, MT4, 120 h
[7] = male, Indian Origin, rhesus monkey, plasma, iv, 1 mg/kg
[8] = male, Indian Origin, rhesus monkey, peripheral blood mononuclear cells (PBMC), po, 7.5 mg/kg
[9] = male, Indian Origin, rhesus monkey, plasma, po, 7.5 mg/kg

SMILES: C#C[C@]1(CO)S[C@@H](n2cnc3c(N)nc(N)nc32)C[C@@H]1O [Compound 1, (2R,3S,5R)-5-(2,6-Diamino-9H-purin-9-yl)-2-ethynyl-2-(hydroxymethyl)tetrahydrothiophen-3-ol]
- CC50 at 5 days [1]: > 25 µM
- EC50 [2, 5]: 0.683 µM

SMILES: C#C[C@]1(CO)S[C@@H](n2cnc3c(NC4CC4)nc(N)nc32)C[C@@H]1O [Compound 2, (2R,3S,5R)-5-(2-Amino-6-(cyclopropylamino)-9H-purin-9-yl)-2-ethynyl-2-(hydroxymethyl)tetrahydrothiophen-3-ol]
- CC50 at 5 days [1]: > 25 µM
- EC50 [2, 5]: 4.52 µM

SMILES: C#C[C@]1(CO)S[C@@H](n2cnc3nc(N)nc(NC4CC4)c32)C[C@@H]1O [Compound 3, (2R,3S,5R)-5-(2-Amino-6-(cyclopropylamino)-7H-purin-7-yl)-2-ethynyl-2-(hydroxymethyl)tetrahydrothiophen-3-ol]
- CC50 at 5 days [1]: > 25 µM
- EC50 [2, 5]: > 25 µM

SMILES: C#C[C@]1(CO)S[C@@H](n2cnc3c(OCC)nc(N)nc32)C[C@@H]1O [Compound 4, (2R,3S,5R)-5-(2-Amino-6-ethoxy-9H-purin-9-yl)-2-ethynyl-2-(hydroxymethyl)tetrahydrothiophen-3-ol]
- CC50 at 5 days [1]: 23 µM
- EC50 [2, 5]: 0.477 µM

SMILES: C#C[C@]1(CO)S[C@@H](n2cnc3nc(N)nc(OCC)c32)C[C@@H]1O [Compound 5, (2R,3S,5R)-5-(2-Amino-6-ethoxy-7H-purin-7-yl)-2-ethynyl-2-(hydroxymethyl)tetrahydrothiophen-3-ol]
- CC50 at 5 days [1]: > 25 µM
- EC50 [2, 5]: > 5 µM

SMILES: C#C[C@]1(CO[P@@](=O)(N[C@@H](C)C(=O)OCC(CC)CC)Oc2ccccc2)S[C@@H](n2cnc3c(N)nc(N)nc32)C[C@@H]1O [Compound 6, 2-Ethylbutyl ((S)-(((2R,3S,5R)-5-(2,6-diamino-9H-purin-9-yl)-2-ethynyl-3-hydroxytetrahydrothiophen-2-yl)methoxy)(phenoxy)phosphoryl)-L-alaninate]
- CC50 at 5 days [1]: > 25 µM
- EC50 [2, 6]: 0.026 µM

SMILES: C#C[C@]1(CO)S[C@@H](n2cc(F)c(N)nc2=O)C[C@@H]1O [Compound 7, 4-Amino-1-((2R,4S,5R)-5-ethynyl-4-hydroxy-5-(hydroxymethyl)tetrahydrothiophen-2-yl)-5-fluoropyrimidin-2(1H)-one]
- CC50 at 5 days [1]: 24 µM
- EC50 [2, 5]: 0.018 µM
- Intracellular concentration in PBMC ([3]; 12 hr after intravenous 1 mg/kg compound 7): BLQ
- Intracellular concentration in PBMC ([3]; 24 hr after intravenous 1 mg/kg compound 7): BLQ
- Intracellular concentration in PBMC ([3]; 48 hr after intravenous 1 mg/kg compound 7): BLQ
- Intracellular concentration in PBMC ([3]; 72 hr after intravenous 1 mg/kg compound 7): BLQ
- Intracellular concentration in PBMC ([3]; 144 hr after intravenous 1 mg/kg compound 7): BLQ
- Intracellular concentration in PBMC ([3]; 168 hr after intravenous 1 mg/kg compound 7): BLQ
- half-life ([3]; male, Indian Origin, rhesus monkey, in vivo, iv, 1 mg/kg): 50 ± 26.4 h
- AUC(0-t) [3, 7]: 14.6 ± 3.01 µM·h
- Cmax [3, 7]: 3770 ± 310 nM
- Intracellular concentration in PBMC ([4]; 48 hr after oral 7.5 mg/kg compound 7): BLQ
- Intracellular concentration in PBMC ([4]; 72 hr after oral 7.5 mg/kg compound 7): BLQ
- Intracellular concentration in PBMC ([4]; 120 hr after oral 7.5 mg/kg compound 7): BLQ
- Intracellular concentration in PBMC ([4]; 168 hr after oral 7.5 mg/kg compound 7): BLQ
- half-life ([4]; male, Indian Origin, rhesus monkey, in vivo, po, 7.5 mg/kg): 25.1 ± 16.3 h
- concentration at 12 h [4, 8]: 560 ± 30 nM
- concentration at 24 h [4, 8]: 370 ± 200 nM
- AUC(0-t) [4, 9]: 20.1 ± 14.9 µM·h
- Cmax [4, 9]: 1500 ± 350 nM

SMILES: C#C[C@]1(CO[P@@](=O)(N[C@@H](C)C(=O)OCC(CC)CC)Oc2ccccc2)S[C@@H](n2cc(F)c(N)nc2=O)C[C@@H]1O [Compound 9, 2-Ethylbutyl ((S)-(((2R,3S,5R)-5-(4-amino-5-fluoro-2-oxopyrimidin-1(2H)-yl)-2-ethynyl-3-hydroxytetrahydrothiophen-2-yl)methoxy)(phenoxy)phosphoryl)-L-alaninate]
- CC50 at 5 days [1]: 23.2 µM
- EC50 [2, 6]: 0.145 µM
